Experimental data as given in patent publication US20230255965A1, “TRPV4 INHIBITOR AS A THERAPEUTIC AGENT FOR OCULAR DISEASES” (RaQualia Pharma Inc., priority 2020, published 2023).
Like-named read-outs stand apart in the source and are kept apart here.

Key:
[1] = test system: mouse model of retinal vein occlusion; test: Late drug administration 7 days after vascular occlusion: retinal nonperfusion area (FITC-dextran flat mount); format: in vivo; details: 250 μM, 2 μL intravitreal 7 days after occlusion, 1 day after administration
Procedure: (§1) Eight-week-old male ddY mice are anesthetized with a mixture of ketamine (120 mg/kg) and xylazine (6 mg/kg) administered intramuscularly. After that, 0.15 mL of a photosensitizer, rose bengal (20 mg/kg) is administered into the tail vein, and a laser (wavelength 532 nm) is irradiated into a vein three optic disc diameters away from the optic disc in the mouse right eye to occlude the retinal vein and form a pathological condition. Laser irradiation is performed using an attachment of Micron4 (Phoenix Research lab., CA, USA), which is a fundus imaging device, under prescribed laser irradiation conditions (wavelength 532 nm, spot size 50 μm, irradiation time 5 seconds, laser power 50 mW). The vein is occluded by 10 to 15 laser irradiations per vein.
(§2) Seven days after vascular occlusion, the retina is damaged, the retinal layer structure is thinned, the blood flow is reduced, and a retinal nonperfusion area exists. Whether the TRPV4 inhibitor restores this condition is evaluated. […]
Seven days after vascular occlusion, 2 μL of a TRPV4 inhibitor (250 μM) or vehicle is administered intravitreally. One day after administration (8 days after occlusion), the retinal layers are imaged using optical coherence tomography (OCT) and intraocular blood flow is measured using laser speckle. […]

[2] = test system: mouse model of retinal vein occlusion; test: Late drug administration 7 days after vascular occlusion: ocular blood flow (laser speckle); format: in vivo; details: 250 μM, 2 μL intravitreal 7 days after occlusion, measured 1 day after administration
Procedure: as §1, §2
(§3) Seven days after vascular occlusion, 2 μL of a TRPV4 inhibitor (250 μM) or vehicle is administered intravitreally. One day after administration (8 days after occlusion), the retinal layers are imaged using optical coherence tomography (OCT) and intraocular blood flow is measured using laser speckle.

[3] = test system: tumor necrosis factor alpha (TNFα); test: Expression of TNFα in retina of mouse retinal vein occlusion model by Western blotting; format: in vivo; details: 250 μM, 2 μL intravitreal immediately after vascular occlusion, retina 1 day after occlusion
Procedure: as §1
Using the same method as in Example 3, the retinal veins of mice are occluded by laser irradiation into the veins of the eye.
Immediately after laser irradiation, 2 μL of a TRPV4 inhibitor (250 μM) is administered intravitreally. One day after vascular occlusion, the mice are euthanized by cervical dislocation, and then retinas isolated from removed eyeballs are evaluated by Western blotting.

[4] = test system: mouse model of retinal vein occlusion; test: Late drug administration 7 days after vascular occlusion: suppression of retinal thinning (OCT); format: in vivo; details: 250 μM, 2 μL intravitreal 7 days after occlusion, measured 1 day after administration
Procedure: as §1, §2, §3

[5] = test system: mouse retinal vein occlusion model; test: Histological evaluation for retinal vein occlusion: thickness of the retinal inner nuclear layer (INL), HE staining; format: in vivo; details: single intravitreal administration of 2 μL, 24 hours after irradiation, vs vehicle
Procedure: as §1
Immediately after laser irradiation, a TRPV4 inhibitor is administered, and 24 hours after irradiation, the eyeball is removed and a retinal histopathology specimen is prepared. Hematoxylin-eosin (HE) staining is performed to measure the thickness of the retinal inner nuclear layer (INL). Other stains (e.g., TUNEL stain) may be used for analysis as needed.
Administration of a TRPV4 inhibitor is performed by intravitreal administration (local administration). The conditions of the solution for administration are investigated in advance, and the concentration for intravitreal administration is determined. However, if the conditions for systemic administration are met, systemic administration may be included in the group composition. For intravitreal administration, the dosage should be 2 μL/eye as a single dose. For systemic administration, the number of doses and dosage should be determined after a separate consideration.
After a single intravitreal administration of 2 μL of a TRPV4 inhibitor (25 μM, 250 μM) or vehicle, whether the TRPV4 inhibitor restores the retinal edema is evaluated.

[6] = test system: human retinal microvascular endothelial cells (HRMECs); test: Cell permeability using human retinal microvascular endothelial cells, transendothelial electrical resistance (TEER); format: cell-based; details: for inhibition at 10 µM: Homo sapiens, HRMEC, read-out: inhibition rate of increased vascular permeability (TEER); for change of transepithelial electrical resistance (TEER values): 24 hours after addition
Procedure: Human retinal microvascular endothelial cells (HRMECs) are seeded onto Transwell inserts at a density of 1.0×10^5 cells/mL. The medium is changed every other day and the cells are cultured for 7 days. Transendothelial electrical resistance (TEER) is measured using a measurement device and cup-shaped electrode (Endohm-6; World Precision Instruments, USA). One hour after the addition of a TRPV4 inhibitor (final concentration: 1 μM, 10 μM) or buffer for evaluation to cells, VEGF (final concentration: 10 ng/mL) or GSK1016790A, a TRPV4 agonist (final concentration: 10 nM) is added, and 24 hours after the addition, transepithelial electrical resistance values (TEER values) is measured 24 hours after addition. The transepithelial electrical resistance value (TEER value) is an index for evaluating barrier functions such as tight junctions of cells.

diabetic model mice = details: cited from earlier work; for retinal edema: single intravitreal administration
[7] = final concentration 10 μM, compared to VEGF-added group, 24 hours

## O=C([C@H](O)c1cccc(Cl)c1)N1CCc2nc(C3(c4ccccc4)CC3)[nH]c(=O)c2C1 [Compound A, (R)-6-(2-(3-chlorophenyl)-2-hydroxyacetyl)-2-(1-phenylcyclopropyl)-5,6,7,8-tetrahydropyrido[4,3-d]pyrimidin-4(3H)-one]
[1]
  inhibition rate of nonperfusion areas in the retina: ≥ 50%
[2]
  improvement of ocular blood flow reduction rate: ≥ 30%
[3]
  inhibition rate of the increase in TNF expression: ≥ 50%
[4]
  inhibition of retinal thinning: ≥ 30%
[5]; 25 μM
  inhibition rate of the increase in the thickness of the retinal inner nuclear layer (INL): 40%
[5]; 250 μM
  inhibition rate of the increase in the thickness of the retinal inner nuclear layer (INL): 76%
[6]; final concentration 1 μM, 10 μM, VEGF 10 ng/mL or GSK1016790A 10 nM added, 24 hours
  inhibition rate of increased vascular permeability (TEER): ≥ 50%

## CC(C)(O)c1cnc(N2C[C@@]3(CCC[C@](C)(Cn4cnc5ccc(C#N)cc54)C3)OC2=O)cn1 [Compound B, 1-(((5S,7S)-3-(5-(2-hydroxypropan-2-yl)pyrazin-2-yl)-7-methyl-2-oxo-1-oxa-3-azaspiro[4.5]decan-7-yl)methyl)-1H-benzo[d]imidazole-6-carbonitrile]
[5]; 250 μM
  inhibition rate of the increase in the thickness of the retinal inner nuclear layer (INL): 62%
[6]; 24 h
  inhibition at 10 µM: ≥ 30%

## O=C(NC1(c2ccccc2)CC1)c1c(CN2CCC(N3CCCCC3)CC2)c(-c2cccc(C(F)(F)F)c2)nc2cc(Br)ccc12 [Compound C, 3-(1,4′-bipiperidin-1′-ylmethyl)-7-bromo-N-(1-phenylcyclopropyl)-2-[3-(trifluoromethyl)phenyl]-4-quinolinecarboxamide]
Diabetic model mice; Non-Patent Literature 11
  retinal thinning: not suppressed
  retinal edema: it does not
Diabetic model mice; Patent Literature 2
  retinal edema: suppresses retinal edema
[5]; 250 μM
  inhibition rate of the increase in the thickness of the retinal inner nuclear layer (INL): 59%
[6]; [7]
  inhibition at 10 µM: ≥ 30%

## Cc1c(C(=O)Nc2cccc(C(F)(F)F)c2)cc(-c2ccccc2)n1CCCN1CCOCC1 [Compound D, N-(3-(trifluoromethyl)phenyl)-2-methyl-1-(3-morpholinopropyl)-5-phenyl-1H-pyrrole-3-carboxamide]
[5]; 250 μM
  inhibition rate of the increase in the thickness of the retinal inner nuclear layer (INL): 64%
[6]; [7]
  inhibition at 10 µM: ≥ 30%

## CC(C)C[C@H](NC(=O)c1cc2ccccc2s1)C(=O)N1CCN(C(=O)[C@H](CO)NS(=O)(=O)c2ccc(Cl)cc2Cl)CC1 [GSK1016790A]
[6]; GSK1016790A final concentration 10 nM
  change of transepithelial electrical resistance (TEER values): decreases transepithelial electrical resistance

## VEGF
[6]; VEGF final concentration 10 ng/mL
  change of transepithelial electrical resistance (TEER values): decreases transepithelial electrical resistance
